Laboratory results taken from patent publication US20100035857A1, “ANTI-HYPERCHOLESTEROLEMIC COMPOUNDS” (priority 2006, published 2010).

Test system: cholesterol absorption
Assay: Cholesterol Absorption Assay in Rats
Type: in vivo
Settings: CD male rats, oral, at the highest dose tested; [3H]-cholesterol counts in liver and plasma
Procedure: Compounds can be tested for cholesterol absorption activity in assays using, e.g., rats or mice, and are preferably tested in the rat assay described herein. Representative compounds of this invention were determined to inhibit cholesterol absorption employing the Cholesterol Absorption Assay in Rats, below. This assay involves comparing a test compound to ezetimibe with respect to their ability to inhibit cholesterol absorption in rats.
Cholesterol Absorption Assay in Rats: CD male rats (n=5/group), aged 5 weeks, were dosed orally with 0.5 ml 0.25% methyl cellulose solution with or without test compound or ezetimibe (0.0003 to 1 mg/kg). 0.5 to 16 hrs later all of the rats were dosed orally with 0.5 ml […]® containing 5 μCi [^3H]-cholesterol per rat. Five hours later, the animals were euthanized, and liver and blood were collected. Cholesterol counts in liver and plasma were determined, and percent inhibition of cholesterol absorption was calculated.

SMILES: O=C1[C@H](CC[C@H](O)c2ccc(F)cc2)[C@@H](c2ccc(O)cc2)N1c1ccc(F)cc1 [ezetimibe, Ezetimibe]
- inhibition of cholesterol absorption: > 75%
